Consider 14 compounds from patent US20250000767A1, “FORMULATIONS AND METHODS FOR SKIN REGENERATION” (ENTRINSIC, LLC, priority 2023, published 2025).

Common to all, as to type: cell-based, human
Experiment [1] concerns skin barrier marker genes in differentiated NHEK. Kind of experiment: comparative analysis of qPCR data from two donors with scoring system, single amino acids. As to conditions: for ranking as most effective or least effective amino acids (scoring system): qPCR data from two donors. The source says: The scoring system was developed to address the numerous variables arising from the experimental results. […] See, e.g., FIGS. 3 and 4.
(§1) To test the effect of amino acid treatment on epithelial skin barrier, a cellular model of differentiated normal human epidermal keratinocytes (NHEK) was utilized. Commercially available NHEK (ATCC), derived from three diverse healthy donors, were used.
Background: Real-time PCR tracks product formation cycle by cycle.

In experiment [2] the test system is EGF, PDGF, FGF2, and PPARD genes (skin barrier markers). Kind of experiment: single amino acids and combinations on barrier marker genes EGF, FGF2, PDGF, PPARD in differentiated NHEK (FIG. 28). As to conditions: alone or in combination; action on skin barrier markers. The protocol: Treatment time-4 h. […] Exemplary barrier marker genes examined as follows: Epidermal growth factor (EGF); fibroblast growth factor 2 (FGF2); platelet derived growth factor (PDGF); Peroxisome Proliferator Activated Receptor Delta (PPARD).
Once the skin barrier marker panel was identified, a scoring system by which to evaluate different amino acids or combinations thereof under consideration was developed. The scoring system was developed to address the numerous variables arising from the experimental results. […] Sec, e.g., FIG. 28. […] See, e.g., FIG. 29.
as §1
The marker genes: epidermal growth factor (EGF); platelet-derived growth factor (PDGF), fibroblast growth factor 2 (FGF2), peroxisome proliferator activated receptor delta (PPARD).
Amino acid(s) are mixed in previously established concentrations in water and added to amino acid-deprived culture medium.
mRNA is extracted, converted to cDNA, and analyzed by qPCR method using custom TaqMan array 384-well plates (Thermo Fisher Scientific) containing the above-mentioned genes. Control housekeeping genes were included to normalize the mRNA expression: GAPDH and/or YWHAZ. The array plate contained the genes and samples were analyzed in by qPCR.

The next experiment deals with TGFB mRNA. In words: TGFB mRNA fold change in donor keratinocytes, 4GAA and retinol (qPCR). The following applies: 4 h, amino acid-deprived medium, 4GAA 4 mM, ROL 10 μM. Here is the method: (§2) FIGS. 17A-17C show the fold change of a specific gene mRNA comparing the 4 amino acid combination (Ala, Gln, Gly, Ser; 4GAA; 4 mM), and retinol (ROL; 10 μM), alone or in combination, to control (CTR; untreated control without amino acids or retinol) with Donor E, Donor G. Donor O, Donor R, and Donor T human-derived epidermal keratinocytes (NHEK) with a 4 h treatment in amino acid (AA)-deprived medium. The data are shown in graphical form showing CTR; 4GAA (4 mM); ROL (10 μM); 4GAA (4 mM)+ROL (10 μM) combination.
(§3) Keratinocytes from different donors (e.g., human-derived epidermal keratinocytes (NHEK)), skin equivalents (e.g., 3D models (human epidermal skin equivalents)), or fibroblasts (e.g., human dermal fibroblasts, adult (HDFa)) were cultured in amino acid-deprived media or complete media for 4 hours or 24 hours after complete differentiation and, in parallel, were treated with an amino acid combination (4GAA; alanine, glutamine, glycine, serine) at 4 mM, 10 μM retinol (ROL), or the combination of 4 mM 4GAA and 10 μM ROL. Cells were harvested, RNA was extracted, and qPCR analysis was performed with a housekeeping gene, e.g., GAPDH.
(§4) FIGS. 17A-17C and 18A-18C show the graphical results of the fold change, where the average fold change is depicted by the horizontal bar for each condition and each of the donors (Donors E, G, O, R, T) is depicted by a colored circle. […]

The next experiment relates to COL1A1 mRNA. In words: COL1A1 mRNA fold change in donor keratinocytes, 4GAA and retinol (qPCR). The following applies: 4 h, amino acid-deprived medium, 4GAA 4 mM, ROL 10 μM. Here is the method:
as §2, §3, §4

The next experiment concerns HAS2 mRNA. In words: HAS2 mRNA fold change in donor keratinocytes, 4GAA and retinol (qPCR). The following applies: 4GAA 4 mM, ROL 10 μM. Here is the method:
(§5) FIGS. 18A-18C show the fold change of a specific gene mRNA comparing the 4 amino acid combination (Ala, Gln, Gly, Ser; 4GAA; 4 mM), and retinol (ROL; 10 μM), alone or in combination with Donor E. Donor G. Donor O. Donor R. and Donor T human-derived epidermal keratinocytes (NHEK) to control (CTR; untreated control without amino acids or retinol) with a 4 h treatment in amino acid (AA)-deprived medium. The data of FIGS. 18A-18C are shown in graphical form showing CTR; 4GAA (4 mM); ROL (10 μM); 4GAA (4 mM)+ROL (10 μM) combination. […] FIGS. 18D-18F show the data in tabular form (Donor E (n=3). Donor G (n=3). Donor O (n=3). Donor R (n=3), and Donor T (n=3)) for fold change of HAS1 mRNA. HAS2 mRNA, and HAS3 mRNA, respectively, and in tabular form showing the fold change for each of the specified conditions under each respective graphical form.
(§6) FIGS. 19A-19D show the fold change of a specific gene mRNA comparing the 4 amino acid combination (Ala. Gln. Gly, Ser; 4GAA; 4 mM), and retinol (ROL; 10 μM), alone or in combination to control (CTR; untreated control without amino acids or retinol) with Donor O human-derived epidermal keratinocytes (NHEK) with a 24 h treatment in complete medium. The data of FIGS. 19A-19D are shown in graphical form showing CTR; 4GAA (4 mM); ROL (10 μM); 4GAA (4 mM)+ROL (10 μM) combination. […]

Another experiment deals with HAS3 mRNA. Kind of experiment: HAS3 mRNA fold change in donor keratinocytes, 4GAA and retinol (qPCR). The following applies: 4GAA 4 mM, ROL 10 μM. Here is the method: as §5, §6
The mark [3] stands for this setting: Donor O and Donor R keratinocytes, 24 h, complete medium.
The mark [4] stands for this setting: donor keratinocytes, 4 h, amino acid-deprived medium.

In the case of `N=C(N)NCCC[C@H](N)C(=O)O` [Arg, arginine], the “effects in preliminary screens” value in experiment [1] is “positive effects”. In experiment [2], the “effect on skin regeneration including skin barrier function” value is recorded as “beneficial effect”. `CC(C)[C@H](N)C(=O)O` [valine]: the “effect on skin regeneration including skin barrier function” value in experiment [2] is “beneficial effect”. As to `N[C@@H](CO)C(=O)O` [Ser, serine], the “ranking as most effective or least effective amino acids (scoring system)” value (“ranking” for short) in experiment [1] was “most effective”. Besides, in experiment [2], the “effect on skin regeneration including skin barrier function” value is “beneficial effect”. On to `N[C@@H](CC(=O)O)C(=O)O` [Asp, aspartic acid], for which, in experiment [1], the “ranking” value is recorded as “least effective”. As for `N[C@@H](Cc1ccc(O)cc1)C(=O)O` [Tyr, tyrosine], in experiment [1], the “ranking” value is on record as “least effective”. In the case of `N[C@@H](Cc1c[nH]c2ccccc12)C(=O)O` [Trp, tryptophan], in experiment [1], the “effects in preliminary screens” value is “positive effects”. Also, in experiment [2], the “effect on skin regeneration including skin barrier function” value is given as “beneficial effect”. For the compound `C[C@H](N)C(=O)O` [Ala, alanine], the “ranking” value in experiment [1] is recorded as “most effective”. Further, the “effect on skin regeneration including skin barrier function” value in experiment [2] is “beneficial effect”. In the case of `O=C(O)[C@@H]1CCCN1` [Pro], the “ranking” value in experiment [1] is on record as “least effective”. For `NC(=O)CC[C@H](N)C(=O)O` [Gln, glutamine], in experiment [1], the “ranking” value is listed as “most effective”. For the same compound, the “effect on skin regeneration including skin barrier function” value in experiment [2] is “beneficial effect”.

Take `N[C@@H](CS)C(=O)O` [Cys, cysteine]: the “ranking” value in experiment [1] is reported as “least effective”.

For the compound `NCC(=O)O` [Gly, glycine], the “ranking” value in experiment [1] is given as “most effective”. Also, the “effect on skin regeneration including skin barrier function” value in experiment [2] is “beneficial effect”.

Regarding `CC[C@H](C)[C@H](N)C(=O)O` [isoleucine], the “effect on skin regeneration including skin barrier function” value in experiment [2] is given as “beneficial effect”. For the compound `CC1=C(/C=C/C(C)=C/C=C/C(C)=C/CO)C(C)(C)CCC1` [ROL, retinol], in the experiment with TGFB mRNA, the “TGFB mRNA expression” value is reported as “upregulated”. In addition, the “COL1A1 mRNA expression” value in the experiment on COL1A1 mRNA is reported as “upregulated”. Also, the “HAS2 mRNA gene expression” value in the experiment with HAS2 mRNA (setting [3]) was “upregulated”. In the experiment with HAS2 mRNA (setting [4]), the HAS2 gene expression entry was “upregulated”. The “HAS3 mRNA gene expression” value in the experiment with HAS3 mRNA (setting [3]) is “upregulated”. The HAS3 gene expression entry in the experiment with HAS3 mRNA (setting [4]) was “upregulated”. `C[C@@H](O)[C@H](N)C(=O)O` [Thr, threonine]: in experiment [1], the “ranking” value is on record as “least effective”. Besides, in experiment [2], the “effect on skin regeneration including skin barrier function” value is “beneficial effect”.
